Assay results published in PMC7412250, “Novel Chrysin-De-Allyl PAC-1 Hybrid Analogues as Anticancer Compounds: Design, Synthesis, and Biological Evaluation” (Molecules, 2020).

How the values were obtained:
U-251 = experiment: MTT cytotoxicity assay, U-251; format: cell-based; conditions: Homo sapiens, mean ± SEM of three independent experiments in triplicate, read-out: IC50 Brain Cancer U-251
Method: (§1) A panel of cancer cell lines, including breast (MDA-MB-231, BT20), brain (U251), and colon (HCT116), as well as a normal cell line (human mammary epithelial cells: HMECs), were grown as adherent monolayers in flasks with Dulbecco’s Modified Eagle Medium (DMEM), supplemented with 10% fetal bovine serum (FBS) and 1% penicillin and streptomycin in a humidified incubator with 5% CO2 at 37 °C.
(§2) The (3-(4,5-dimethylthiazol-2-yl)-2,5-diphenyltetrazolium bromide) (MTT) assay was used to determine the cytotoxicity of the 15 chrysin derivatives in the above-mentioned cell lines. Briefly, cells were harvested with 0.05% trypsin, 2.21 mM ethylenediaminetetraacetic acid (EDTA), 1× from Corning (Corning, NY, USA), and suspended at a final density of 5 × 10^3 cells/well. Cells were seeded (180 μL/well) into 96-well plates. Initially, four different concentrations of each compound were added to find the compounds with the greatest antiproliferative efficacy in the MDA-MB-231 cell line (0, 1, 10, and 100 μM). Subsequently, […] different concentrations […] of each compound were added to the remaining cell lines mentioned above. After 68 h of incubation, 20 μL of the MTT solution (4 mg/mL) were added to each well, and the plates were incubated for 4 h. This allowed viable cells to biotransform the yellow-colored MTT into dark-blue formazan crystals. Subsequently, the medium was discarded, and 150 μL of DMSO were added to each well to dissolve the formazan crystals. The absorbance was determined at 590 nm using a DTX 880 multimode detector (Beckman Coulter life sciences, IN, USA). The IC50 ± SD concentrations were calculated from three experiments performed in triplicate/duplicate. The IC50 values were calculated from the cell survival percentages obtained for each compound tested at different concentrations. Similarly, the cytotoxicity of the test compounds was compared to the normal cell line (HMEC).

HCT116 = experiment: MTT cytotoxicity assay, HCT116; format: cell-based; conditions: Homo sapiens, HCT-116, mean ± SEM of three independent experiments in triplicate, read-out: IC50 Colon Cancer HCT116
Method: as §1, §2

[1] = tested on: HMEC (human mammary epithelial cells); experiment: MTT cytotoxicity assay, normal cells HMEC; format: cell-based; conditions: mean ± SEM of three independent experiments in triplicate
Method: as §1, §2

MDA-MB-231 cells = experiment: Morphological observation of cells; format: cell-based, human; conditions: 20 µM
Method: Figure 3 Effects of 4g and 4i on cellular morphology, mitochondrial membrane potential, and cell cycle (A) Morphological observations of MDA-MB-231 cells incubated with 0, 5, and 20 µM concentrations of 4g and 4i at different time intervals of 0, 24, 48, and 72 h, respectively; (B) The MDA-MB-231 cells in complete medium were incubated with 4g and 4i at 0, 5, or 10 µM for 24 h. Cells were then incubated with the reagents of the MitoTracker Red and Alexa Fluor 488 annexin V kits for flow cytometry. Representative results of MDA-MB-231 cells from two independent experiments, each performed in triplicate, are shown; (C) Histograms quantitatively summarize the results following incubation with 4g and 4i, respectively; (D) The induction of cell cycle arrest in MDA-MB-231 cells by 4g and 4i is shown. The MDA-MB-231 cells were incubated with different concentrations (0, 5, and 10 µM) of 4g and 4i for 24 h and were subjected to cell cycle analysis by flow cytometry of PI (X axis)/cell counts (Y axis); (E) A histogram quantitatively summarizing the change in % of cells in each phase of the cell cycle due to incubation with 4g and 4i. The data represents means ± SEM of three independent experiments performed in triplicate with **** p < 0.0001 vs. control group. […]

SMILES | IC50 (U-251) [µM] | IC50 (HCT116) [µM] | IC50 [1] [µM] | cellular morphology (MDA-MB-231 cells)
O=C(COc1cc(O)c2c(=O)cc(-c3ccccc3)oc2c1)N/N=C/c1ccc(O)cc1O [Compound 4g, (E,Z)-N’-(2,4-Dihydroxybenzylidene)-2-((5-hydroxy-4-oxo-2-phenyl-4H-chromen-7-yl)oxy)acetohydrazide] | 7.64 ± 0.11 | 2.68 ± 0.15 | 8 ± 1.33 | decreased the number of adherent MDA-MB-231 cells and induced cellular shrinkage
O=C(COc1cc(O)c2c(=O)cc(-c3ccccc3)oc2c1)N/N=C/c1ccc(O)c(O)c1O [Compound 4i, (E,Z)-2-((5-Hydroxy-4-oxo-2-phenyl-4H-chromen-7-yl)oxy)-N’-(2,3,4-trihydroxybenzylidene)acetohydrazide] | 25.4 ± 7.53 | 20.09 ± 0.13 | > 100 | decreased the number of adherent MDA-MB-231 cells and induced cellular shrinkage
